We go through one molecule from patent US20110201499A1, “Method of Improving Plant Yield of Soybeans by Treatment with Herbicides” (priority 2010, published 2011).

The test system of this test is Soybean (FG72 trait). Briefly: in-field research trial of herbicidal treatment effect on soybean yield. The following applies: isoxaflutole 35 g ai/ha soil treatment pre-emergence, then one application of glyphosate 1060 g ai/ha plus ammonium sulfate 2850 g ai/ha; weed free check = 100%; averaged across four replications; moisture standardized; Fithian, Ill. It is filed as in vivo. An excerpt:
Soybean seed was secured for an in-field research trial. The soybean seed is genetically modified to be tolerant to applications of HPPD (4-hydroxyphenyl-pyruvate-dioxygenase) inhibiting herbicides (example: BALANCE PRO or isoxaflutole) and glyphosate (ROUNDUP ORIGINAL MAX). The trait is known as FG72.
The site was conventionally tilled and free of weeds at the time of planting. The soybean seed was planted in 30″ rows on Jun. 18, 2008. Broadcast spray treatments of a first herbicidal treatment composition comprising isoxaflutole were applied using a tractor mounted sprayer on Jun. 20, 2008. All areas of the field, including a weed-free check (control) that was not treated with isoxaflutole, were additionally treated on Jun. 20, 2008, with PURSUIT PLUS herbicide, a combination of 2.24% imazethapyr and 30.24% pendimethalin, available from BASF. The application was made prior to soybean and weed emergence.
To avoid any interference of weed effects on yield in the trial, the entire trial site was kept weed free for the entire growing season. […]
The trial was evaluated for herbicidal treatment effect on yield. […] Data was entered into and analyzed with ARM computer software. […] Treatment differences were determined using least significant differences (LSD, P=0.05).

On to `CS(=O)(=O)c1cc(C(F)(F)F)ccc1C(=O)c1cnoc1C1CC1` [isoxaflutole, 5-cyclopropyl-4-(2-methylsulfonyl-4-trifluoromethylbenzoyl) isoxazole], for which the “soybean seed yield as percent of the weed free check” value was 108.5%.
